Experiments:
[1] = Physicochemical characteristics of LNPs comprising mRNA and sulfur lipid (dynamic light scattering, Ribogreen entrapment)
Procedure: (§1) LNP-mRNA systems were prepared as previously described (Kulkarni, J. A. et al. ACS Nano 12, 4787-4795 (2018); and Kulkarni, J. A. et al. Nanoscale 11, 9023-9031 (2019), each of which is incorporated herein by reference). Briefly, lipid components (ionizable cationic lipid, cholesterol, DSPC, and PEG-lipid) at appropriate ratios were dissolved in ethanol to a concentration of 10 mM total lipid. Luciferase encoding mRNA was dissolved in 25 mM sodium acetate pH 4 buffer to achieve an amine-to-phosphate (N/P) ratio of 6. The two solutions were mixed through a T-junction mixer at a total flow rate of 20 mL/min, and a flow rate ratio of 3:1 v/v (corresponding to 15:5 mL/min aqueous:organic phase). The resulting suspension was subsequently dialyzed against PBS pH 7.4. siRNAs were dissolved in 25 mM sodium acetate pH 4 buffer to achieve an amine-to-phosphate (N/P) ratio of 3. The two solutions were mixed through a T-junction mixer at a total flow rate of 20 mL/min, and a flow rate ratio of 3:1 v/v (corresponding to 15:5 mL/min aqueous:organic phase). The resulting suspension was subsequently dialyzed against PBS pH 7.4.
(§2) The hydrodynamic diameter and size distribution of LNP-mRNA and LNP-siRNA systems were analyzed by dynamic light scattering using a Malvern Zetasizer Nano ZS. Data presented as number-weighted average size. Lipid concentrations were measured using the Cholesterol E Total-Cholesterol assay (Wako Diagnostics, Richmond, VA). RNA concentration and entrapment were measured using the Quant-iT Ribogreen RNA assay as described elsewhere (Kulkarni, J. A. et al. ACS Nano 12, 4787-4795 (2018); and Kulkarni, J. A. et al. Nanoscale 11, 9023-9031 (2019)).
LNPs were prepared comprising ionizable cationic sulfur-containing lipid/DSPC/cholesterol/PEG-lipid at molar ratios of 50/10/38.5/1.5 and mRNA (at N/P ratio of 6) as described in the Materials and Methods. The size, PDI and entrapment percentage were determined as set out in the Materials and Methods and the results are shown in Table 2 below. The data are based on n≥3 experiments and values reported are means±SD. […]

Factor VII = experiment: In vivo analysis of Factor VII (FVII) silencing using LNP-siRNA systems; conditions: 0.3 mg/kg LNP-siFVII intravenous, mice, 24 h, FIG. 6
Procedure: FVII knockdown study were performed as previously described.^3 In brief, LNP-siRNA were administered intravenously into WT mice (Charles River Laboratories, Wilmington, MA). Animals were euthanized after 24 h, blood was collected, serum was separated from whole blood using Microtainer Serum Separator tubes (Becton Dickinson, Franklin Lakes, NJ), and the residual serum FVII levels were determined. All procedures were approved by the Animal Care Committee at the University of British Columbia and were performed in accordance with guidelines established by the Canadian Council on Animal Care.
The graph depicts residual Factor VII following intravenous administration of various doses of the LNP-siFVII (see Materials and Methods above).

HepG2 cells = experiment: In vitro analysis of luciferase expression using LNP-mRNA systems; assay type: cell-based; conditions: LNP-mRNA (firefly luciferase) at 0.125, 0.25, 0.5 and 1 μg/mL, 24 hours post treatment, versus KC2 LNP
Procedure: To assess LNP-mRNA efficacy in vitro, HepG2 cells were seeded at 8,000 cells/well in 96-well plates and cultured in DMEM supplemented with 10% FBS. LNP systems entrapping luciferase mRNA were added at various concentrations and luciferase expression was analyzed 24 hours post-treatment using the Steady-Glo Luciferase kit (Promega, Madison, WI).
The in vitro gene expression efficacy of LNP systems entrapping mRNA encoding for firefly luciferase was assessed. HepG2 cells were treated at different doses (0.125, 0.25, 0.5 and 1 μg/mL) using the above LNP-mRNA systems. Luciferase expression was analyzed 24 hours post treatment. Ionizable cationic lipid used was either KC2 (DLin-KC2-DMA) or compound 13 (MF019; see Example 1). In each case, the RLU was higher for compound 13 (MF019) than for KC2.

[2] = Physicochemical characteristics of lipid nanoparticle (LNP) entrapping siRNA (dynamic light scattering, Ribogreen entrapment, apparent pKa); conditions: for Size: number-weighted average, mean of n≥3; for Entrapment: siRNA entrapment, LNP sulfur lipid/DSPC/cholesterol/PEG-lipid 50/10/38.5/1.5, N/P 3
Procedure: as §1, §2
LNPs were prepared composed of ionizable cationic sulfur-containing lipid/DSPC/cholesterol/PEG-lipid at molar ratios of 50/10/38.5/1.5 and siRNA (at N/P ratio of 3) as described in the above Methods and Materials. The data are based on n≥3 experiments and values reported are means±SD.
Compound 13 (MF019; see Example 1) produced siRNA formulations having desirable physicochemical characteristics as shown in Table 3 below. The polydispersity index (PDI) of the resulting nanoparticles was <0.1, with an average LNP size ˜45 nm.

[3] = LNP sulfur lipid/DSPC/cholesterol/PEG-lipid 50/10/38.5/1.5, siRNA, N/P 3

CCCCCSCSCCCCCCCCC(CCCCCCCCSCSCCCCC)OC(=O)CCCN(C)C [compound 13, 6,8,26,28-tetrathiatritriacontan-17-yl 4-(dimethylamino)butanoate]
PDI ([1]; LNP sulfur lipid/DSPC/cholesterol/PEG-lipid 50/10/38.5/1.5, mRNA, N/P 6): 0.054
Size ([1]; LNP sulfur lipid/DSPC/cholesterol/PEG-lipid 50/10/38.5/1.5, mRNA, N/P 6, number-weighted average, mean of n≥3): 79 nm
Entrapment ([1]; mRNA entrapment, LNP sulfur lipid/DSPC/cholesterol/PEG-lipid 50/10/38.5/1.5, N/P 6): >93%
Factor VII knock down (residual serum FVII) (Factor VII): almost complete knock down
Luciferase expression (RLU) compared with KC2 (HepG2 cells): higher
PDI [2, 3]: 0.028
pKa [2, 3]: 6.41
Size [2, 3]: 43 nm
Size ([2]; LNP sulfur lipid/DSPC/cholesterol/PEG-lipid 50/10/38.5/1.5, siRNA, N/P 3, listed as Compound 13): ~45 nm
polydispersity index (PDI) ([2]; LNP with siRNA, N/P 3): < 0.1
nucleic acid entrapment ([2]; formulated in a lipid nanoparticle, nucleic acid not specified): above 93%
Entrapment [2]: >93%
Entrapment ([2]; listed as Compound 13): > 93%
